For orientation: IC50 means the point on the concentration scale where inhibition reaches its midpoint.

Structures can show the parent of a compound that is named as a salt. Where two headings read alike, the source gives them in different places.

Series [1] concerns human Hep G2 cells (ATCC HB-8065). Nature of the series: Cytotoxicity in Hep G2 cells (CellTiter-Glo). It is filed as cell-based. A general note: In ATP-based viability assays light output follows the ATP content of the culture.
For series [2], the target named is T1, SARS-CoV-2 PLpro (Severe acute respiratory syndrome coronavirus 2, UniProt P0DTD1).
T1 construct: containing 60 nM papain-like protease
Nature of the series: biochemical.

Setting [3] is: Hep G2 cells, 100 μM test article, 24-hour exposure.
Where [4] appears, read: 60 nM papain-like protease, 50 μM Z-RLRGG-AMC, pH 7.5, 37° C., read-out: SARS-CoV-2 PLpro IC50.

With `Cc1ccc(N2CCN(C3CC3)CC2)cc1C(=O)N[C@H](C)c1cccc2ccccc12` [Example 115, 5-(4-Cyclopropylpiperazin-1-yl)-2-methyl-N-[(1R)-1-(1-naphthyl)ethyl]benzamide], the “% Cell Viability” value in series [1] (setting [3]) is 26.7%. For the same molecule, in series [2] (setting [4]), the IC50 was below 2 µM.

Turning to `Cc1ccc(N2CCN(C)CC2)cc1C(=O)N[C@H](C)c1cccc(-c2ccc(N)nc2)c1` [Example 67, N-[(1R)-1-[3-(6-Amino-3-pyridyl)phenyl]ethyl]-2-methyl-5-(4-methylpiperazin-1-yl)benzamide], the “% Cell Viability” value in series [1] (setting [3]) stood at 58.7%. The IC50 in series [2] (setting [4]) is below 2 µM.

Take `Cc1ccc(N2CCN(C)CC2)cc1C(=O)N[C@H](C)c1cccc(C(O)CO)c1` (stereo partly drawn) [Example 69, N-[(1R)-1-[3-(1,2-Dihydroxyethyl)phenyl]ethyl]-2-methyl-5-(4-methylpiperazin-1-yl)benzamide]: the “% Cell Viability” value in series [1] (setting [3]) was 107.0%. Further, the IC50 in series [2] (setting [4]) was below 10 µM.

Consider `Cc1ccc(N2CCN(C)CC2)cc1C(=O)N[C@H](C)c1cncc(-c2cnn(C)c2)c1` [Example 224, 2-Methyl-5-(4-methylpiperazin-1-yl)-N-[(1R)-1-[5-(1-methylpyrazol-4-yl)-3-pyridyl]ethyl]benzamide], for which the “% Cell Viability” value in series [1] (setting [3]) is on record as 105.0%. In addition, the IC50 in series [2] (setting [4]) was below 5 µM.

As for `COc1cc(-c2cn(C)nc2C)cc([C@@H](C)NC(=O)c2cc(N3CCN(CC4CC4)CC3)ccc2C)c1` [Example 255, 5-[4-(Cyclopropylmethyl)piperazin-1-yl]-N-[(1R)-1-[3-(1,3-dimethylpyrazol-4-yl)-5-methoxy-phenyl]ethyl]-2-methyl-benzamide hydrochloride salt], the “% Cell Viability” value in series [1] (setting [3]) was found to be 70.3%. For the same molecule, the IC50 in series [2] (setting [4]) was below 2 µM.

Take `Cc1ccc(N2CCN(C)CC2)cc1C(=O)N[C@H](C)c1cccc(-c2cccc(C(=O)N3CCN(C)CC3)c2)c1` [Example 88, 2-Methyl-N-[(1R)-1-[3-[3-(4-methylpiperazine-1-carbonyl)phenyl]phenyl]ethyl]-5-(4-methylpiperazin-1-yl)benzamide]: the “% Cell Viability” value in series [1] (setting [3]) was 78.8%. For the same molecule, the IC50 in series [2] (setting [4]) was below 2 µM.

In the case of `CNCCN(C)C(=O)c1ccc(-c2cccc([C@@H](C)NC(=O)c3cc(N4CCN(C)CC4)ccc3C)c2)cc1` [Example 75, 2-Methyl-N-[(1R)-1-[3-[4-[methyl-[2-(methylamino)ethyl]carbamoyl]phenyl]phenyl]ethyl]-5-(4-methylpiperazin-1-yl)benzamide], in series [1] (setting [3]), the “% Cell Viability” value is reported as 123.6%. Further, the IC50 in series [2] (setting [4]) is below 2 µM.

`Cc1ccc(N2CCN(C)CC2)cc1C(=O)N[C@H](C)c1cc(F)cc(Br)c1` [Example 197, N-[(1R)-1-(3-Bromo-5-fluoro-phenyl)ethyl]-2-methyl-5-(4-methylpiperazin-1-yl)benzamide]: the “% Cell Viability” value in series [1] (setting [3]) was 44.7%. In addition, the half-maximal inhibitory concentration (IC50) in series [2] (setting [4]) was below 2 µM.

For `Cc1ccc(N2CCN(C)CC2)cc1C(=O)N[C@H](C)c1cccc(N2CCN(CCC(=O)O)CC2)c1` [Example 166, 3-[4-[3-[(1R)-1-[[2-Methyl-5-(4-methylpiperazin-1-yl)benzoyl]amino]ethyl]phenyl]piper-azin-1-yl]propanoic acid], in series [1] (setting [3]), the “% Cell Viability” value is recorded as 100.9%. Besides, the IC50 in series [2] (setting [4]) is below 10 µM.

On to `COc1cc([C@@H](C)NC(=O)c2cc(N3CCN(C)CC3)ccc2C)ccc1OCc1ccccc1` [Example 184, N-[(1R)-1-(4-benzyloxy-3-methoxy-phenyl)ethyl]-2-methyl-5-(4-methylpiperazin-1-yl)benzamide], for which, in series [1] (setting [3]), the “% Cell Viability” value came out at 51.3%. For the same molecule, the IC50 in series [2] (setting [4]) is below 2 µM.

Consider `COc1ccc([C@@H](C)NC(=O)c2cc(N3CCN(C)CC3)ccc2C)cc1-c1nnc(C)s1` [Example 236, N-[(1R)-1-[4-Methoxy-3-(5-methyl-1,3,4-thiadiazol-2-yl)phenyl]ethyl]-2-methyl-5-(4-methylpiperazin-1-yl)benzamide], for which the “% Cell Viability” value in series [1] (setting [3]) was determined as 79.5%. Further, the IC50 in series [2] (setting [4]) is below 2 µM.

On to `Cc1ccc(N2CCN(C)CC2)cc1C(=O)N[C@H](C)c1ccc(Cl)c(Br)c1` [Example 201, N-[(1R)-1-(3-Bromo-4-chloro-phenyl)ethyl]-2-methyl-5-(4-methylpiperazin-1-yl)benzamide], for which the “% Cell Viability” value in series [1] (setting [3]) came to 1.0%. The IC50 in series [2] (setting [4]) is below 2 µM.

Consider `COc1cc(-c2cn(C)nc2C)cc([C@@H](C)NC(=O)c2cc(N3C[C@H]4CC[C@@H](C3)N4)ccc2C)c1` [Example 270, 5-[(1S,5R)-3,8-Diazabicyclo[3.2.1]octan-3-yl]-N-[(1R)-1-[3-(1,3-dimethylpyrazol-4-yl)-5-methoxy-phenyl]ethyl]-2-methyl-benzamide], for which the “% Cell Viability” value in series [1] (human, 24 h, 100 μM) amounted to 22.6%. Besides, the IC50 in series [2] is below 2 µM.

As to `COc1cc(-c2cnn(C)c2)cc([C@@H](C)NC(=O)c2cc(C3CCNCC3)ccc2C)c1` [Example 303, N-[(1R)-1-[3-Methoxy-5-(1-methylpyrazol-4-yl)phenyl]ethyl]-2-methyl-5-(4-piperidyl)benzamide], the “% Cell Viability” value in series [1] (setting [3]) was determined as 73.2%. Also, the IC50 in series [2] (setting [4]) was below 2 µM.

As to `Cc1ccc(N2CCN(C)CC2)cc1C(=O)N[C@H](C)c1cccc(-c2cccc(C(=O)N(C)C)c2)c1` [Example 47, N-[(1R)-1-[3-[3-(Dimethylcarbamoyl)phenyl]phenyl]ethyl]-2-methyl-5-(4-methylpiperazin-1-yl)benzamide], the “% Cell Viability” value in series [1] (setting [3]) was determined as 54.0%. In addition, the IC50 in series [2] (setting [4]) is below 2 µM.

With `COCCNC(=O)c1cc(-c2cccc([C@@H](C)NC(=O)c3cc(N4CCN(C)CC4)ccc3C)c2)cs1` [Example 100, N-(2-Methoxyethyl)-4-[3-[(1R)-1-[[2-methyl-5-(4-methylpiperazin-1-yl)benzoyl]amino]ethyl]phenyl]thiophene-2-carboxamide], the “% Cell Viability” value in series [1] (setting [3]) is 65.9%. In addition, the IC50 in series [2] (setting [4]) is below 2 µM.

For the molecule `COc1cc(-c2cn(C)nc2C)cc([C@@H](C)NC(=O)c2cc(C3CCN(C)CC3)ccc2C)c1` [Example 301, N-[(1R)-1-[3-(1,3-Dimethylpyrazol-4-yl)-5-methoxy-phenyl]ethyl]-2-methyl-5-(1-methyl-4-piperidyl)benzamide], the “% Cell Viability” value in series [1] (setting [3]) came to 77.5%. Besides, in series [2] (setting [4]), the IC50 was below 2 µM.

As for `Cc1ccc(N2CCCN(S(N)(=O)=O)CC2)cc1C(=O)N[C@H](C)c1cccc2ccccc12` [Example 178, 2-methyl-N-[(1R)-1-(1-naphthyl)ethyl]-5-(4-sulfamoyl-1,4-diazepan-1-yl)benzamide], the “% Cell Viability” value in series [1] (setting [3]) is 77.2%. Further, the half-inhibitory concentration (IC50) in series [2] (setting [4]) is below 20 µM.

`C[C@@H](NC(=O)c1cc(N2CCNCC2)ccc1Cl)c1cccc2ccccc12` [Example 134, 2-Chloro-N-[(1R)-1-(1-naphthyl)ethyl]-5-piperazin-1-yl-benzamide]: in series [1] (setting [3]), the “% Cell Viability” value amounted to 0.8%. For the same molecule, in series [2] (setting [4]), the IC50 is below 2 µM.

On to `Cc1ccc(N2CCCNCC2)cc1C(=O)N[C@H](C)c1cccc2ccccc12` [Example 128, 5-(1,4-Diazepan-1-yl)-2-methyl-N-[(1R)-1-(1-naphthyl)ethyl]benzamide], for which the “% Cell Viability” value in series [1] (setting [3]) is 1.1%. Besides, the IC50 in series [2] (setting [4]) is below 2 µM.

Regarding `COc1cc([C@@H](C)NC(=O)c2cc(N3C[C@H]4C[C@@H]3CN4C)ccc2C)ccc1OCC1CC1` [Example 297, N-[(1R)-1-[4-(Cyclopropylmethoxy)-3-methoxy-phenyl]ethyl]-2-methyl-5-[(1R,4R)-5-methyl-2,5-diazabicyclo[2.2.1]heptan-2-yl]benzamide], the “% Cell Viability” value in series [1] (setting [3]) was 61.1%. In series [2] (setting [4]), the IC50 was below 2 µM.
